Test [1] concerns the target T1, KDR (Homo sapiens, UniProt P35968). As to the kind of experiment: KDR Enzymatic Assay (fluorescence polarization competition immunoassay). The format is biochemical. Conditions: for IC50: 1.6 nM KDR, 10 μM ATP, 10 μg/ml poly(E4,Y), averages of three independent measurements, read-out: IC50 Enzyme; for protein tyrosine kinase (KDR) inhibition, potency in words: text commentary on Table 1. On the procedure:
KDR Enzymatic Assay. A fluorescence polarization competition immunoassay was used to determine the compound potency for KDR. The assay was performed in black 96-well microplates (LJL BioSystems). The assay buffer used was 100 mM HEPES, pH 7.5, 1 mM DTT, 0.01% (v/v) Tween-20. Compounds were diluted in assay buffer containing 4% DMSO just prior to the assay. […] The kinase reaction was initiated by adding 2 μl of 8 nM KDR in assay buffer.
The plates were incubated at room temperature for 5 min. At the end of the incubation, the reaction was quenched with 1.2 μl of 50 mM EDTA. Following a 5-min incubation, each well received 10 μl of a 1:1:3 mixture of anti-phosphotyrosine antibody, 10×, PTK green tracer, 10× (vortexed), FP dilution buffer, respectively (all from PanVera, cat. # P2837). The plate was covered, incubated for 30 min at room temperature and the fluorescence polarization was read on an ANALYST™ HT Assay Detection System (LJL Biosystems, Sunnyvale, Calif.). The instrument settings were: 485 nm excitation filter; 530 nm emission filter; Z height: middle of well; G factor: 0.93. […] The IC50 values reported are the averages of three independent measurements.
Target sequence in this assay (P35968 20-1356, species assumed): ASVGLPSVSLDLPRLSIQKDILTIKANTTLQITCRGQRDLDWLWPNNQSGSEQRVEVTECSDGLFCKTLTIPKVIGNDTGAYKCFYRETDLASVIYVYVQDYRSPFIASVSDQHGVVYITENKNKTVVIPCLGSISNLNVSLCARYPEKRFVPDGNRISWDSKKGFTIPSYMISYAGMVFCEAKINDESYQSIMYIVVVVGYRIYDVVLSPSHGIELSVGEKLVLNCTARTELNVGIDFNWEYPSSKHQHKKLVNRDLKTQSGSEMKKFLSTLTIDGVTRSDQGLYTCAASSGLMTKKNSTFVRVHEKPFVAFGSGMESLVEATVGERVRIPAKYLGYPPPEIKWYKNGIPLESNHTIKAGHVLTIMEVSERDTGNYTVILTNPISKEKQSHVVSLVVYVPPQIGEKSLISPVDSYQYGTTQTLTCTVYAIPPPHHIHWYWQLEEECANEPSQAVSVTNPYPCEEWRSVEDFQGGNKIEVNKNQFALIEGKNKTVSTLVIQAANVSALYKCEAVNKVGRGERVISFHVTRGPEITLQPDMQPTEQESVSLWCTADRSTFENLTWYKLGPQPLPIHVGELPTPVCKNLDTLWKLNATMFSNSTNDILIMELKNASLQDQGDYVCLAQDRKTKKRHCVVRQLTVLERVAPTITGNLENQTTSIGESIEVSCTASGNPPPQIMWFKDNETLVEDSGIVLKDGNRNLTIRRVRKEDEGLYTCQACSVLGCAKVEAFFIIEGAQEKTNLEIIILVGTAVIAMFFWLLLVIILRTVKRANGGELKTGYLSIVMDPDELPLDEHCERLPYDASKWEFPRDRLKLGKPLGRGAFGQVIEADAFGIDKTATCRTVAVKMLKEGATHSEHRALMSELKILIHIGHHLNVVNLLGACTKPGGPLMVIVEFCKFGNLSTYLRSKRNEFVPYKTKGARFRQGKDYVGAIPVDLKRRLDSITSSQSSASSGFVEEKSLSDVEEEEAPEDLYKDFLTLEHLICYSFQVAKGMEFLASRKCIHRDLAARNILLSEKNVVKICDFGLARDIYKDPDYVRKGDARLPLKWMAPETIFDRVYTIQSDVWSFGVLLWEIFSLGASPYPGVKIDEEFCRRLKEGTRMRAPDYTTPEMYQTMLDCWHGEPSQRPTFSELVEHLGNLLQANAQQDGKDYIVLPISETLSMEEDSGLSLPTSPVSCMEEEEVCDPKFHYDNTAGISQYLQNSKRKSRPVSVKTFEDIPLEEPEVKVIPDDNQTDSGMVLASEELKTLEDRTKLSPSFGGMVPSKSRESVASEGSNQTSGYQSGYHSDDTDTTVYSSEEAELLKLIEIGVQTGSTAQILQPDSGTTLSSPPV

Test [2] addresses T1, KDR. As to the kind of experiment: KDR Cell-Based Assay (VEGF-stimulated MAP kinase activation in HUVEC). Also noted: which express endogenous Flk-1(KDR); endogenous in cells; host or cells: HUVEC (human umbilical vein endothelial cells). Conditions: compounds 30 minutes prior to 25 ng/ml VEGF for 10 minutes, phosphorylated MAP kinase immunoblot. The method, then:
KDR Cell-Based Assay. To determine the effect of the test compounds on KDR function in cells, VEGF-stimulated MAP kinase activation in human umbilical vein endothelial cells (HUVEC), which express endogenous Flk-1(KDR), was examined. HUVECs were grown to confluence in EMB-2 endothelial cell media (Biowhittaker Inc., Walkersville, Md.) at 37° C. and 5% CO2. Confluent, quiescent HUVECs were treated with the test compounds 30 minutes prior to stimulation with 25 ng/ml VEGF for 10 minutes at 37° C. These cells were then lysed in HNTG buffer (50 mM HEPES, 150 mM NaCl, 1% triton-X-100, 1.5 mM MgCl2, 10% glycerol, 10 mM NaF, 1 mM EDTA, 10 mM sodium pyrophosphate, 1 uM PMSF and 250 uM NaVO4). Cell lysates (40 ug total protein) were separated by SDS-PAGE and transferred to nitrocellulose. Immunoblots were probed with a polyclonal antibody to phosphorylated MAP kinase (Cell Signaling Technologies, Woburn, Mass.) and alkaline phosphatase conjugated secondary antibody (Biorad Labs, Hercules, Calif.). Immunoblot detection was done by measuring the fluorescent product of the alkaline phosphatase reaction with the substrate 9H-(1,3-dichloro-9,9-dimethylacridin-2-one-7-yl) phosphate, diammonium salt (DDAO phosphate) (Molecular Probes, Eugene, Oreg.) using a Molecular Dynamics Typhoon Imaging system (Molecular Dynamics, Sunnyvale, Calif.). Quantitation of DDAO phosphate signal and IC50 determinations were done with Molecular Dynamics ImageQuant software.
Target sequence in this assay (P35968 20-1356): as the sequence (P35968 20-1356, species assumed) above

16 molecules from US20040110758A1, “4,6-Diaminosubstituted-2-[oxy or aminoxy]-[1,3,5]triazines as protein tyrosine kinase inhibitors” (priority 2002, published 2004) can be followed below.

The term IC50 denotes the point on the concentration scale where inhibition reaches its midpoint.

As for `CCN(Cc1ccccc1)c1nc(O)nc(Nc2ccc3ncsc3c2)n1` [Example 1, 4-(Benzothiazol-6-ylamino)-6-(N-ethylbenzylamino)-[1,3,5]triazin-2-ol], the 50% inhibitory concentration (IC50) in test [1] and in test [2] was less than 1000 nM throughout.

For the molecule `Oc1nc(NCc2ccccc2)nc(Nc2ccc3ncsc3c2)n1` [Example 2, 4-(Benzothiazol-6-ylamino)-6-(benzylamino)-[1,3,5]triazin-2-ol], in test [1], the half-maximal inhibitory concentration (IC50) fell in the range of 1000 to 15000 nM; the “protein tyrosine kinase (KDR) inhibition, potency in words” value (from here on “protein tyrosine kinase (KDR) inhibition”) was “less active than Examples 3 and 4”.

Take `C[C@@H](Nc1nc(O)nc(Nc2ccc3ncsc3c2)n1)c1ccccc1` [Example 3, (R)-4-(Benzothiazol-6-ylamino)-6-(1-phenylethylamino)-[1,3,5]triazin-2-ol]: in test [1], the half-inhibitory concentration (IC50) was less than 1000 nM and the “protein tyrosine kinase (KDR) inhibition” value is recorded as “more potent than the corresponding S-enantiomer”. For the same molecule, the 50% inhibitory concentration (IC50) in test [2] was 1000 to 15000 nM.

On to `C[C@H](Nc1nc(O)nc(Nc2ccc3ncsc3c2)n1)c1ccccc1` [Example 4, (S)-4-(Benzothiazol-6-ylamino)-6-(1-phenylethylamino)-[1,3,5]triazin-2-ol], for which, in test [1], the half-maximal inhibitory concentration (IC50) fell in the range of 1000 to 15000 nM.

Regarding `CC(C)(Nc1nc(O)nc(Nc2ccc3ncsc3c2)n1)c1ccccc1` [Example 5], in test [1], the IC50 is less than 1000 nM and the “protein tyrosine kinase (KDR) inhibition” value is “one of the most potent protein tyrosine kinase inhibitors tested”. The molecule further came in with a half-inhibitory concentration (IC50) in test [2] of less than 1000 nM.

`CN(CCc1ccccn1)c1nc(O)nc(Nc2ccc3ncsc3c2)n1` [Example 6, 4-(Benzothiazol-6-ylamino)-6-[methyl-(2-pyridyl-2-ylethyl)amino]-[1,3,5]triazin-2-ol]: the IC50 in test [1] was less than 1000 nM; in test [2] it was 1000 to 15000 nM.

`CC(C)(Nc1nc(O)nc(Nc2ccc3ncccc3c2)n1)c1ccccc1` [Example 7, 4-(1-methyl-1-phenylethylamino)-6-(guinolin-6-ylamino)-[1,3,5]triazin-2-ol]: the concentration for half-maximal inhibition (IC50) is less than 1000 nM in test [1] and 1000 to 15000 nM in test [2].

Consider `Oc1nc(Nc2ccc3ncsc3c2)nc(N2CCCC2c2ccccc2)n1` (stereo not shown) [Example 8, 4-(Benzothiazol-6-ylamino)-6-(2-phenyl-pyrrolidin-1-yl)-[1,3,5]triazin-2-ol], for which the half-maximal inhibitory concentration (IC50) in test [1] was less than 1000 nM; in test [2], 1000 to 15000 nM.

As for `Oc1nc(Nc2ccc3ncsc3c2)nc(N2CCSC(c3ccccc3)C2)n1` (stereo not shown) [Example 9, 4-(Benzothiazol-6-ylamino)-6-(2-phenyl-thiomorpholin-4-yl)-[1,3,5]triazin-2-ol], the IC50 in test [1] was less than 1000 nM; in test [2] it was 1000 to 15000 nM. Besides, in test [1], the “protein tyrosine kinase (KDR) inhibition” value is “potent inhibitors”.

As for `Oc1nc(Nc2ccc3ncsc3c2)nc(N2CCSCC2c2ccccc2)n1` (stereo not shown) [Example 10, 4-(Benzothiazol-6-ylamino)-6-(3-phenyl-thiomorpholin-4-yl)-[1,3,5]triazin-2-ol], the figures for the IC50 in test [1] and in test [2] were less than 1000 nM and 1000 to 15000 nM, respectively. Also, the “protein tyrosine kinase (KDR) inhibition” value in test [1] is recorded as “potent inhibitors”.

Consider `CN(c1ccc2cn[nH]c2c1)c1nc(O)nc(Nc2ccc3ncsc3c2)n1` [Example 11], for which the 50% inhibitory concentration (IC50) in test [1] is less than 1000 nM; in test [2], 1000 to 15000 nM.

Consider `CC(C)(Nc1nc(NO)nc(Nc2ccc3ncsc3c2)n1)c1ccccc1` [Example 14], for which the IC50 is less than 1000 nM in test [1] and 1000 to 15000 nM in test [2].

In the case of `CC(C)(Nc1nc(N)nc(Nc2ccc3ncsc3c2)n1)c1ccccc1` [Example 15, N-(Benzothiazol-6-yl)-N′-(1-methyl-1-phenylethyl)-[1,3,5]triazine-2,4,6-triamine], the half-maximal inhibitory concentration (IC50) in test [1] was in the range of 1000 to 15000 nM.

For the molecule `CC(C)(Nc1ncnc(Nc2ccc3ncsc3c2)n1)c1ccccc1` [Example 16, N-(Benzothiazol-6-yl)-N′-(1-methyl-1-phenylethyl)-[1,3,5]triazine-2,4-diamine], in test [1], the IC50 lay within 1000 to 15000 nM.

Turning to `COc1nc(Nc2ccc3ncsc3c2)nc(NC(C)(C)c2ccccc2)n1` [Example 17, N-(Benzothiazol-6-yl)-6-methoxy-N′-(1-methyl-1-1-phenylethyl)-[1,3,5]triazine-2,4-diamine], the 50% inhibitory concentration (IC50) in test [1] fell in the range of 1000 to 15000 nM.

For `CC(C)(Nc1nc(Nc2ccc3ncsc3c2)nc(OCc2ccccc2)n1)c1ccccc1` [Example 18, N-(Benzothiazol-6-yl)-6-benzyloxy-N′-(1-methyl-1-phenylethyl)-[1,3,5]triazine-2,4-diamine], the 50% inhibitory concentration (IC50) in test [1] lay in the range of 1000 to 15000 nM.
